Reference: patent US6835751B2, “Bicyclic amino acids as pharmaceutical agents” (Warner-Dambert Company LLC, priority 1999, dated 2004)
Structures can show the parent of a compound that is named as a salt.

Test system: α2δ subunit
Assay: radioligand binding assay using [3H]gabapentin and the α2δ subunit
Conditions: [3H]gabapentin radioligand; α2δ subunit from porcine brain tissue

SMILES | α2δ binding affinity
NCC1(CC(=O)O)C[C@H]2CCC[C@@H]2C1 (racemic) [(±)-(1α,5β)(2-Aminomethyl-octahydro-pentalen-2-yl)-acetic Acid Hydrochloride] | >10 µM
NCC1(CC(=O)O)C[C@H]2CC[C@@H]2C1 (racemic) [(±)-(1α,5β)(3-aminomethyl-bicyclo[3.2.0]hept-3-yl)-ascetic Acid Hydrochloride] | 2.86 µM
NCC1(CC(=O)O)C[C@H]2CCCC[C@@H]2C1 (racemic) [(±)-(1α,6β)(2-Aminomethyl-octahydro-inden-2-yl)-acetic Acid Hydrochloride] | >10 µM
NC[C@]1(CC(=O)O)C[C@H]2CCC[C@H]2C1 [(1α,3α,5α)(2-Aminomethyl-octahydro-pentalen-2-yl)-acetic Acid Hydrochloride] | 1.58 µM
NC[C@]1(CC(=O)O)C[C@H]2CC[C@H]2C1 [(1α,3α,5α)(3-Aminomethyl-bicyclo[3.2.0]hept-3-yl)-acetic Acid Hydrochloride] | 0.038 µM
NC[C@@]1(CC(=O)O)C[C@H]2CC[C@H]2C1 [(1α,3β,5α)(3-Aminomethyl-bicyclo[3.2.0]hept-3-yl)-acetic acid hydrochloride] | 0.332 µM
NC[C@]1(CC(=O)O)C[C@H]2CCCC[C@H]2C1 [(1α,6α,8α)(2-Aminomethyl-octahydro-inden-2-yl)-acetic acid hydrochloride] | 0.72 µM
NC[C@@]1(CC(=O)O)C[C@H]2CCCC[C@H]2C1 [((1α,6α,8β)(2-Aminomethyl-octahydro-inden-2-yl)-acetic Acid Hydrochloride] | >10 µM

Test system: carrageenan-induced hyperalgesia model
Assay: Carrageenin-induced hyperalgesia, rat paw pressure test (Randall-Selitto)
Format: in vivo
Conditions: dosed orally at 30 mg/kg; 1 hour postdose
Experimental: Carrageenin-Induced Hyperalgesia
Nociceptive pressure thresholds were measured in the rat paw pressure test using an analgesimeter (Randall-Selitto method: Randall L. O. and Selitto J. J., “A method for measurement of analgesic activity on inflamed tissue,” Arch. Int. Pharmacodyn., 1957;4:409-419). Male Sprague-Dawley rats (70-90 g) were trained on this apparatus before the test day. Pressure was gradually applied to the hind paw of each rat and nociceptive thresholds were determined as the pressure (g) required to elicit paw withdrawal. A cutoff point of 250 g was used to prevent any tissue damage to the paw. On the test day, two to three baseline measurements were taken before animals were administered 100 μL of 2% carrageenin by intraplantar injection into the right hind paw.
(R)-2-Aza-spiro[4.5]decane-4-carboxylic acid hydrochloride was tested in the above carrageenan-induced hyperalgesia model. The compound was dosed orally at 30 mg/kg, and 1 hour postdose gave a percent of maximum possible effect ([…]) of 53%. At 2 hours postdose, it gave only 4.6% of MPE.

SMILES | percent of maximum possible effect (APE)
Cl.O=C(O)[C@H]1CNCC12CCCCC2 [(R)-2-Aza-spiro[4.5]decane-4-carboxylic acid hydrochloride] | 53%

Same assay, conditions: dosed orally at 30 mg/kg; 2 hours postdose

SMILES | % of MPE
Cl.O=C(O)[C@H]1CNCC12CCCCC2 [(R)-2-Aza-spiro[4.5]decane-4-carboxylic acid hydrochloride] | 4.6%
